Values of other authors in US20130303466A1, “Chemosensory Receptor Ligand-Based Therapies” (ELCELYX THERAPEUTICS, INC., priority 2010, published 2013).

Tested on: GLP-1
Conditions: rats; with administration of a DPP-IV inhibitor

In the case of OCCN1C[C@H](O)[C@@H](O)[C@H](O)[C@H]1CO [miglitol], the “increase in GLP-1” value is given as “synergistic”.

Target: T1, sweet receptor (Homo sapiens, UniProt Q7RTX0+Q8TE23)
T1 sequence (Q8TE23 20-839): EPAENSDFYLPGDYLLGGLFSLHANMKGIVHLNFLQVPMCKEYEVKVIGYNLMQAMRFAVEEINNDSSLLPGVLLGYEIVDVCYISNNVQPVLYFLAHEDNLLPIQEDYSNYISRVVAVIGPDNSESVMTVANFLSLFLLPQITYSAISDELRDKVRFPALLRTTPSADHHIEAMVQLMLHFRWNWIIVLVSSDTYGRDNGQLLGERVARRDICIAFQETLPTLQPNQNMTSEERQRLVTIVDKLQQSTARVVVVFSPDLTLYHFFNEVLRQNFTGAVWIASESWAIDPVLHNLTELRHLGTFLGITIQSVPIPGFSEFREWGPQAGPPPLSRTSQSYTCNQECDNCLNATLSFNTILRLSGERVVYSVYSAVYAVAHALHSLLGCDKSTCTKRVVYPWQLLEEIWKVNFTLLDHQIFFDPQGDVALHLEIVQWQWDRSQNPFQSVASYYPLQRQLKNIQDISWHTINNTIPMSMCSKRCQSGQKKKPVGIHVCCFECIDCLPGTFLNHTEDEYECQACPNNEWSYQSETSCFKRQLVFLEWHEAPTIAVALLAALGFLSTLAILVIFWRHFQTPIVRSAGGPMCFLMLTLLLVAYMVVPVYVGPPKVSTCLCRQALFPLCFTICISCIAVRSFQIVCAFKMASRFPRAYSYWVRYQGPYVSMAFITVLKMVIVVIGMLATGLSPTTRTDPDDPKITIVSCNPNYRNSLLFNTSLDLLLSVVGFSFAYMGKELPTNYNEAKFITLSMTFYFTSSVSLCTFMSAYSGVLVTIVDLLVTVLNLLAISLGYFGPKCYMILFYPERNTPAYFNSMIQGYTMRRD
T1 sequence (Q7RTX0 21-852): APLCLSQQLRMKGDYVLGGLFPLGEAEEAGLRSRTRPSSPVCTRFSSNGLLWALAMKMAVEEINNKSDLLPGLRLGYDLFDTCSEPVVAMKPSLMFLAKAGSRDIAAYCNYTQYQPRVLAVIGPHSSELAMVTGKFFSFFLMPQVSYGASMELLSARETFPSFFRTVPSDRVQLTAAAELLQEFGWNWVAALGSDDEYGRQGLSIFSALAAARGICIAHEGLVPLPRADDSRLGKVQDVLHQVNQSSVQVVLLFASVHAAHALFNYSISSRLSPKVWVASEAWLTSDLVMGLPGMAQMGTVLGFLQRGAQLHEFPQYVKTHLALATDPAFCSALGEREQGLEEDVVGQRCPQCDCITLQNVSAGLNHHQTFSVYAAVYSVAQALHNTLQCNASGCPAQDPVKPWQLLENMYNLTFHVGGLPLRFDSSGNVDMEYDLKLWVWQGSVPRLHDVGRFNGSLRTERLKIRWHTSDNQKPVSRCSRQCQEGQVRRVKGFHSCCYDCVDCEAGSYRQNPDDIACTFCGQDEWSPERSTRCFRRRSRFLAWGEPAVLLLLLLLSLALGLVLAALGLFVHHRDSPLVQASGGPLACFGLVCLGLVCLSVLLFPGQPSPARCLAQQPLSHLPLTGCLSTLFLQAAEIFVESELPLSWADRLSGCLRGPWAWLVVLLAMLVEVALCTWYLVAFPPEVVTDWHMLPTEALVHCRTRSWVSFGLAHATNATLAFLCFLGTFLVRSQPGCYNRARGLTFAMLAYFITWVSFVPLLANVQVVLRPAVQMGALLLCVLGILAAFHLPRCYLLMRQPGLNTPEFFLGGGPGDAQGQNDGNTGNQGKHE
Conditions: relative sweetness on a weight comparison basis to sucrose (= 1.0); ranges: relative sweetness varied with the concentration of sucrose; adapted from Kim et al., 2002

First: CC1(C)[C@@H](O[C@H]2O[C@H](C(=O)O)[C@@H](O)[C@H](O)[C@H]2O[C@@H]2OC[C@H](O)[C@H](O)[C@H]2O)CC[C@]2(C)[C@H]3C(=O)C=C4[C@@H]5C[C@@](C)(C(=O)O)CC[C@]5(C)CC[C@@]4(C)[C@]3(C)CC[C@@H]12 [Araboglycyrrhizin (56), Araboglycyrrhizin]
Second: C[C@@H]1O[C@@H](O[C@H]2[C@H](Oc3cc(O)c(C(=O)CCc4ccc(O)cc4)c(O)c3)O[C@H](CO)[C@@H](O)[C@@H]2O)[C@H](O)[C@H](O)[C@H]1O [Naringin dihydrochalcone (81), Naringin dihydrochalcone]
The Sweetness/potency of the first is lower: 150 for the first, 300 for the second.

Compared with “Cyclocarioside A [Cyclocarioside A (47)]”, “Albiziasaponin B [Albiziasaponin B (51)]” is higher in Sweetness/potency: 200 for the first, 600 for the second.

First: COc1c(O)cc2c(c1O)C(=O)[C@H](O)[C@@H](c1ccc(O)c(O)c1)O2 [(2R,3R)-2,3-Dihydro-5,7,3′,4′-tetrahydroxy-6-methoxyflavonol]
Second: C=C1C[C@@]23CC[C@H]4[C@@](C)(CCC[C@@]4(C)C(=O)O)[C@@H]2CC[C@]1(O[C@@H]1O[C@H](CO)[C@@H](O)[C@H](O)[C@H]1O[C@@H]1O[C@H](CO)[C@@H](O)[C@H](O)[C@H]1O)C3 [Steviolbioside (22), Steviolbioside]
The Sweetness/potency of the first is lower: 15 for the first, 90 for the second.

Going from CC1=CC[C@@H]([C@@H](C)[C@H]2CC[C@@]3(C)[C@@H]4CC[C@H]5[C@](C)(C(=O)O)[C@@H](O[C@@H]6O[C@H](CO)[C@@H](O)[C@H](O)[C@H]6O[C@@H]6O[C@H](CO)[C@@H](O)[C@H](O)[C@H]6O)CC[C@@]56C[C@@]46CC[C@]23C)OC1=O [Abrusoside C (44), Abrusoside C] to Periandrin II [Periandrin II (58)], the Sweetness/potency rises from 50 to 95.

Compared with C=C(C)C1CC=C(/C=N/O)CC1 (stereo not drawn) [Perillartine (10), Perillartine], COc1ccc(C2Oc3cc(O)cc(O)c3C(=O)C2OC(C)=O)cc1O (stereo not drawn) [Dihydroquercetin 3-O-acetate 4′-methyl ether] is higher in Sweetness/potency: 370 for the first, 400 for the second.

For Dulcoside A [Dulcoside A (15)], the Sweetness/potency is listed as 30.

For COc1ccc(CCC(=O)c2c(O)cc(O[C@@H]3O[C@H](CO)[C@@H](O)[C@H](O)[C@H]3O[C@@H]3O[C@@H](C)[C@H](O)[C@@H](O)[C@H]3O)cc2O)cc1O [Neohesperidin dihydrochalcone (82), Neohesperidin dihydrochalcone], the Sweetness/potency is listed as 1,000.
For C/C(=C\CC/C(C)=C/CO[C@@H]1O[C@H](CO)[C@@H](O)[C@H](O[C@@H]2O[C@@H](C)[C@H](O)[C@@H](O)[C@H]2O)[C@H]1O[C@@H]1O[C@@H](C)[C@H](O)[C@@H](O)[C@H]1O)CC/C=C(\C)CO[C@@H]1O[C@H](CO)[C@@H](O)[C@H](O[C@@H]2O[C@@H](C)[C@H](O)[C@@H](O)[C@H]2O)[C@H]1O[C@@H]1O[C@@H](C)[C@H](O)[C@@H](O)[C@H]1O [Mukurozioside IIb (13), Mukurozioside IIb], the Sweetness/potency is given as “ca. 1”.

Tested on: gut hormone release
Conditions: humans, instillation into the duodenum

For OC[C@H]1O[C@H](O[C@]2(CCl)O[C@H](CCl)[C@@H](O)[C@@H]2O)[C@H](O)[C@@H](O)[C@H]1Cl [sucralose], the gut hormone release is listed as “no effect”.
